Experimental data from patent US8283353B2, “Fused ring compound and use thereof” (Takeda Pharmaceutical Company Limited, priority 2009, dated 2012).

What was measured:
human AT1 receptor = molecular target: T1, human AT1 receptor (Homo sapiens, UniProt P30556); test: AT1 receptor antagonistic activity: [125I]-angiotensin II binding assay on human AT1 receptor-expressing CHO-K1 cellular membrane fraction; conditions: 22.5 pM [125I]-angiotensin II, 1 hr room temperature
T1 construct: expressed in transfected cells; membrane fraction
T1 sequence (P30556 1-359): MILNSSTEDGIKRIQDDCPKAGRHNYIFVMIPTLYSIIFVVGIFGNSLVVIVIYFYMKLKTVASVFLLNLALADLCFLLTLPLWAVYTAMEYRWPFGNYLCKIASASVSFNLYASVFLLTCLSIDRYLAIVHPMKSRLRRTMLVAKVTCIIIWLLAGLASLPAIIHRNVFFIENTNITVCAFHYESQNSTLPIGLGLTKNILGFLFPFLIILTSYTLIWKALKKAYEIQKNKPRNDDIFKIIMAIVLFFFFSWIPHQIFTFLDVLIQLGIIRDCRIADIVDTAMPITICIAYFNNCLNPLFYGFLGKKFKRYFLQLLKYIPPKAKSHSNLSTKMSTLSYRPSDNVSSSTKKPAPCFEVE
Method in brief: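 Competition binding used radiolabelled angiotensin II on stably transfected CHO-K1 membrane fractions in Tris pH 7.4/MgCl2 buffer, optionally containing 0.3 mg/mL fatty acid-free BSA, 1 hr at room temperature. Filtration onto GF/C separated bound tracer, and nonspecific binding was measured with candesartan.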

human PPARγ = molecular target: T2, human PPARγ (Homo sapiens, UniProt P37231); test: PPARγ agonistic activity: luciferase reporter assay in PPARγ:RXRα:4ERPP/CHO-K1 cells; assay type: cell-based; conditions: CHO-K1, test compound 10^−6 M; luciferase activity of control compound X (1 μM) = 100%, non-administration group = 0%
T2 construct: expressed in transfected cells
T2 sequence (P37231 1-477 isoform P37231-2): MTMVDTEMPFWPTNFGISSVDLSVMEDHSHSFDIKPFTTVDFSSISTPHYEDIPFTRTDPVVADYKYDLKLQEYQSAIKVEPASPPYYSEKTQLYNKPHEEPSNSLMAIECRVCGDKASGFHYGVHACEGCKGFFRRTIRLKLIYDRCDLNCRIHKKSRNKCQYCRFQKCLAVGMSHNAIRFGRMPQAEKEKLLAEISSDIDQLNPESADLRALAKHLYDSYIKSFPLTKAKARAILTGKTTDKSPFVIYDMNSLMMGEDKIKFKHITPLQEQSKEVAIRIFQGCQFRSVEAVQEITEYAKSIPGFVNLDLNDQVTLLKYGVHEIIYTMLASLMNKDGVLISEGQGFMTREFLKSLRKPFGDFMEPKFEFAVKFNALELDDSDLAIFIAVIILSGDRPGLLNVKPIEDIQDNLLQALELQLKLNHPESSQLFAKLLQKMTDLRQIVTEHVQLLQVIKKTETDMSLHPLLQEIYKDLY
T2 sequence (P19793 1-462 partner): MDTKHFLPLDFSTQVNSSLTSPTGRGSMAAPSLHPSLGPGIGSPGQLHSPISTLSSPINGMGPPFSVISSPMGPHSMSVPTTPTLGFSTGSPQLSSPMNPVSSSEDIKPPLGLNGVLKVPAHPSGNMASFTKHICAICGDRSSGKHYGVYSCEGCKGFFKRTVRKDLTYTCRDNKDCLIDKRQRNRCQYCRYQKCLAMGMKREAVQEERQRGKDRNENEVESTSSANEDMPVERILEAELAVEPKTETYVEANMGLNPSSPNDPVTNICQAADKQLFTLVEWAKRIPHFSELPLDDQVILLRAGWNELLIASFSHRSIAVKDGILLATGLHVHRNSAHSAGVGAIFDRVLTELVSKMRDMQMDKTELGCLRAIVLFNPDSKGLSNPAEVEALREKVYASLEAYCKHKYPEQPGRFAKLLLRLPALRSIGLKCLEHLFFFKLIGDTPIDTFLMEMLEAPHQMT
Method in brief: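 Activity is expressed relative to untreated cells (0%) and 1 μM reference compound X (100%), from luciferase luminescence. Reporter line: PPARγ:RXRα:4ERPP/CHO-K1, exposed to compound for one day at 37 °C in F12 medium containing 0.1% fatty-acid-free BSA.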

Compound	IC50 (human AT1 receptor)	activation at 1 µM (human PPARγ)
CCCc1c(Cc2ccc(-c3ccccc3-c3noc(=O)[nH]3)cc2)c(=O)n([C@H]2CC[C@H](OCC(O)C(F)F)CC2)c2ncnn12 (stereo partly drawn) [Example 352, 4-[trans-4-(3,3-difluoro-2-hydroxypropoxy)cyclohexyl]-6-{[2′-(5-oxo-4,5-dihydro-1,2,4-oxadiazol-3-yl)biphenyl-4-yl]methyl}-7-propyl[1,2,4]triazolo[1,5-a]pyrimidin-5(4H)-one]	1.4 nM	20%
CCCc1c(Cc2ccc(-c3ccccc3-c3noc(=O)[nH]3)cc2)c(=O)n([C@H]2CC[C@H](OCC(C)(O)CF)CC2)c2nc(C)nn12 (stereo partly drawn) [Example 354, 4-[trans-4-(3-fluoro-2-hydroxy-2-methylpropoxy)cyclohexyl]-2-methyl-6-{[2′-(5-oxo-4,5-dihydro-1,2,4-oxadiazol-3-yl)biphenyl-4-yl]methyl}-7-propyl[1,2,4]triazolo[1,5-a]pyrimidin-5(4H)-one]	1.2 nM	18%
CCCc1c(Cc2ccc(-c3ccccc3-c3noc(=O)[nH]3)cc2F)c(=O)n([C@H]2CC[C@H](OC(CC)C(C)(C)O)CC2)c2ncnn12 (stereo partly drawn) [Example 355, 4-[trans-4-(1-ethyl-2-hydroxy-2-methylpropoxy)cyclohexyl]-6-{[3-fluoro-2′-(5-oxo-4,5-dihydro-1,2,4-oxadiazol-3-yl)biphenyl-4-yl]methyl}-7-propyl[1,2,4]triazolo[1,5-a]pyrimidin-5(4H)-one]	1.7 nM	25%
CCCc1c(Cc2ccc(-c3ccccc3-c3noc(=O)[nH]3)cc2F)c(=O)n([C@H]2CC[C@H](OCC(C)(C)O)CC2)c2nc(C)nn12 [Example 360, 6-{[3-fluoro-2′-(5-oxo-4,5-dihydro-1,2,4-oxadiazol-3-yl)biphenyl-4-yl]methyl}-4-[trans-4-(2-hydroxy-2-methylpropoxy)cyclohexyl]-2-methyl-7-propyl[1,2,4]triazolo[1,5-a]pyrimidin-5(4H)-one]	1.7 nM	19%
CCCc1c(Cc2ccc(-c3ccccc3-c3noc(=O)[nH]3)cc2F)c(=O)n([C@H]2CC[C@H](OC3(C(C)(C)O)CC3)CC2)c2ncnn12 [Example 362, 6-{[3-fluoro-2′-(5-oxo-4,5-dihydro-1,2,4-oxadiazol-3-yl)biphenyl-4-yl]methyl}-4-(trans-4-{[1-(1-hydroxy-1-methylethyl)cyclopropyl]oxy}cyclohexyl)-7-propyl[1,2,4]triazolo[1,5-a]pyrimidin-5(4H)-one]	2.5 nM	26%
CCCc1c(Cc2ccc(-c3ccccc3-c3noc(=O)[nH]3)cc2)c(=O)n([C@H]2CC[C@H](OC3(C(C)(C)O)CC3)CC2)c2ncnn12 [Example 363, 4-(trans-4-{[1-(1-hydroxy-1-methylethyl)cyclopropyl]oxy}cyclohexyl)-6-{[2′-(5-oxo-4,5-dihydro-1,2,4-oxadiazol-3-yl)biphenyl-4-yl]methyl}-7-propyl[1,2,4]triazolo[1,5-a]pyrimidin-5(4H)-one]	2.3 nM	22%
CCCc1c(Cc2ccc(-c3ccccc3-c3noc(=O)[nH]3)cc2F)c(=O)n([C@H]2CC[C@H](OC(C)C(O)(CF)CF)CC2)c2ncnn12 (stereo partly drawn) [Example 364, 4-{trans-4-[3-fluoro-2-(fluoromethyl)-2-hydroxy-1-methylpropoxy]cyclohexyl}-6-{[3-fluoro-2′-(5-oxo-4,5-dihydro-1,2,4-oxadiazol-3-yl)biphenyl-4-yl]methyl}-7-propyl[1,2,4]triazolo[1,5-a]pyrimidin-5(4H)-one]	2.8 nM	29%
CCCc1c(Cc2ccc(-c3ccccc3-c3noc(=O)[nH]3)cc2F)c(=O)n([C@H]2C[C@H](OCC(C)(C)O)C2)c2ncnn12 [Example 367, 6-{[3-fluoro-2′-(5-oxo-4,5-dihydro-1,2,4-oxadiazol-3-yl)biphenyl-4-yl]methyl}-4-[trans-3-(2-hydroxy-2-methylpropoxy)cyclobutyl]-7-propyl[1,2,4]triazolo[1,5-a]pyrimidin-5(4H)-one]	2.2 nM	25%
CCCc1c(Cc2ccc(-c3ccccc3-c3noc(=O)[nH]3)cc2F)c(=O)n([C@H]2CC[C@](C)(OCC(C)(C)O)CC2)c2nc(C)nn12 [Example 368, 6-{[3-fluoro-2′-(5-oxo-4,5-dihydro-1,2,4-oxadiazol-3-yl)biphenyl-4-yl]methyl}-4-[trans-4-(2-hydroxy-2-methylpropoxy)-4-methylcyclohexyl]-2-methyl-7-propyl[1,2,4]triazolo[1,5-a]pyrimidin-5(4H)-one]	2.2 nM	19%
CCCc1c(Cc2ccc(-c3ccccc3-c3noc(=O)[nH]3)cc2F)c(=O)n([C@H]2CC[C@H](OC(C)C3(O)CCC3)CC2)c2ncnn12 (stereo partly drawn) [Example 371, 6-{[3-fluoro-2′-(5-oxo-4,5-dihydro-1,2,4-oxadiazol-3-yl)biphenyl-4-yl]methyl}-4-{trans-4-[1-(1-hydroxycyclobutyl)ethoxy]cyclohexyl}-7-propyl[1,2,4]triazolo[1,5-a]pyrimidin-5(4H)-one]	2.1 nM	33%
CCCc1c(Cc2ccc(-c3ccccc3-c3noc(=O)[nH]3)cc2)c(=O)n(C2CCN(Cc3ccccc3)CC2)c2ncnn12 [Example 373, 4-(1-benzylpiperidin-4-yl)-6-{[2′-(5-oxo-4,5-dihydro-1,2,4-oxadiazol-3-yl)biphenyl-4-yl]methyl}-7-propyl[1,2,4]triazolo[1,5-a]pyrimidin-5(4H)-one]	3.2 nM	16%
CCCc1c(Cc2ccc(-c3ccccc3-c3noc(=O)[nH]3)cc2)c(=O)n(C2CCC(C(C)(C)O)CC2)c2ncnn12 (centres unmarked) [Example 376, 4-[4-(1-hydroxy-1-methylethyl)cyclohexyl]-6-{[2′-(5-oxo-4,5-dihydro-1,2,4-oxadiazol-3-yl)biphenyl-4-yl]methyl}-7-propyl[1,2,4]triazolo[1,5-a]pyrimidin-5(4H)-one]	1.2 nM	19%
CCCc1c(Cc2ccc(-c3ccccc3-c3noc(=O)[nH]3)cc2)c(=O)n([C@H]2CC[C@H](OCC(C)O)CC2)c2ncnn12 (stereo partly drawn) [Example 379, 4-[trans-4-(2-hydroxypropoxy)cyclohexyl]-6-{[2′-(5-oxo-4,5-dihydro-1,2,4-oxadiazol-3-yl)biphenyl-4-yl]methyl}-7-propyl[1,2,4]triazolo[1,5-a]pyrimidin-5(4H)-one]	2.2 nM	34%
CCCc1c(Cc2ccc(-c3ccccc3-c3noc(=O)[nH]3)cc2)c(=O)n(C2CCN(c3ccc(O)cc3)CC2)c2ncnn12 [Example 382, 4-[1-(4-hydroxyphenyl)piperidin-4-yl]-6-{[2′-(5-oxo-4,5-dihydro-1,2,4-oxadiazol-3-yl)biphenyl-4-yl]methyl}-7-propyl[1,2,4]triazolo[1,5-a]pyrimidin-5(4H)-one]	2.9 nM	35%
CCCc1c(Cc2ccc(-c3ccccc3-c3noc(=O)[nH]3)cc2)c(=O)n([C@H]2CC[C@](C)(OCC(C)(C)O)CC2)c2ncnn12 [Example 385, 4-[trans-4-(2-hydroxy-2-methylpropoxy)-4-methylcyclohexyl]-6-{[2′-(5-oxo-4,5-dihydro-1,2,4-oxadiazol-3-yl)biphenyl-4-yl]methyl}-7-propyl[1,2,4]triazolo[1,5-a]pyrimidin-5(4H)-one]	2 nM	23%
CCCc1c(Cc2ccc(-c3ccccc3-c3noc(=O)[nH]3)cc2)c(=O)n([C@H]2CC[C@]3(CCC(CO)O3)CC2)c2ncnn12 (stereo partly drawn) [Example 391, 4-[(5S,8S)-2-(hydroxymethyl)-1-oxaspiro[4.5]dec-8-yl]-6-{[2′-(5-oxo-4,5-dihydro-1,2,4-oxadiazol-3-yl)biphenyl-4-yl]methyl}-7-propyl[1,2,4]triazolo[1,5-a]pyrimidin-5(4H)-one]	3.1 nM	28%
